Reference: ChEMBL document CHEMBL3352333, “Structural evidence of N6-isopentenyladenosine as a new ligand of farnesyl pyrophosphate synthase” (J Med Chem, 2014)
Active and inactive are the calls of the source. The rule behind the calls is not given here.

Assays:
[1] = biological target: T1, Farnesyl pyrophosphate synthase (Homo sapiens) (UniProt P14324); experiment: Binding affinity to FPPS (unknown origin) expressed in Escherichia coli BL21(DEscherichia ) at protein/ligand 1:10 to 1:100 molar ratio by saturation transfer difference NMR analysis
T1 sequence (whole entry): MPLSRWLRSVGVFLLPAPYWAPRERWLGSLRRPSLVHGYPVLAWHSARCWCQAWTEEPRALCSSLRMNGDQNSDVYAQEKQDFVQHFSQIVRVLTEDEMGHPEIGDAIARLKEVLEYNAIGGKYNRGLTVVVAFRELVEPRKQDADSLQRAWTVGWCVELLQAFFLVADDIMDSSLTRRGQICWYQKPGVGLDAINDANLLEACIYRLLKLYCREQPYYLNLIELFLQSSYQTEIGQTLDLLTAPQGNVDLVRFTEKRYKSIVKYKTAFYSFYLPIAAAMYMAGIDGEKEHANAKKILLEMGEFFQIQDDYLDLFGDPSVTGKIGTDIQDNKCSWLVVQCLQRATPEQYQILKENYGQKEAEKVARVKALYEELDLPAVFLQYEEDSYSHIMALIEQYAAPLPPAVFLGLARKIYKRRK

[2] = biological target: T1, Farnesyl pyrophosphate synthase (Homo sapiens); experiment: Binding affinity to FPPS (unknown origin) expressed in Escherichia coli BL21(DEscherichia ) at protein/ligand 1:10 to 1:100 molar ratio by WaterLOGSY NMR analysis
[3] = biological target: T1, Farnesyl pyrophosphate synthase (Homo sapiens); experiment: Binding affinity to FPPS (unknown origin) expressed in Escherichia coli BL21(DEscherichia ) at protein/ligand 1:10 to 1:100 molar ratio by WaterLOGSY 1D 1H NMR analysis
[4] = biological target: T2, Farnesyl pyrophosphate synthase (Homo sapiens, UniProt P14324); experiment: Binding affinity to FPPS (unknown origin) expressed in Escherichia coli BL21(DEscherichia ) assessed as binding constant of proton H2/H8 of purine ring by saturation transfer difference NMR analysis
T2 sequence (P14324 whole entry): T1 sequence (whole entry)

[5] = biological target: T2, Farnesyl pyrophosphate synthase; experiment: Binding affinity to FPPS (unknown origin) expressed in Escherichia coli BL21(DEscherichia ) assessed as binding constant of proton H12 of isopentenylic moiety by saturation transfer difference NMR analysis
[6] = biological target: T2, Farnesyl pyrophosphate synthase; experiment: Binding affinity to FPPS (unknown origin) expressed in Escherichia coli BL21(DEscherichia ) assessed as binding constant of proton H11 of isopentenylic moiety by saturation transfer difference NMR analysis
[7] = biological target: T2, Farnesyl pyrophosphate synthase; experiment: Binding affinity to FPPS (unknown origin) expressed in Escherichia coli BL21(DEscherichia ) assessed as binding constant of proton H14-H15 of isopentenylic moiety by saturation transfer difference NMR analysis
[8] = biological target: T1, Farnesyl pyrophosphate synthase (Homo sapiens); experiment: Binding affinity to FPPS (unknown origin) expressed in Escherichia coli BL21(DEscherichia ) at protein/ligand 1:10 to 1:100 molar ratio by 2D COSY NMR analysis

SMILES: CC(C)=CCNc1ncnc2c1ncn2[C@@H]1O[C@H](CO)[C@@H](O)[C@H]1O [RIBOPRINE]
- Activity [1]: Active
- Activity [2]: Active
- Activity [3]: Active
- Kd [4]: 2020 µM
- Kd [5]: 2210 µM
- Kd [6]: 550 µM
- Kd [7]: 1210 µM
- Activity [8]: Active
